The text below walks through data of patent publication US20150010498A1, “Immunocytokines for Cancer Treatment in Combination with Chemotherapeutic Agents” (Philogen S.p.A., priority 2007, published 2015).

One series concerns tubulin. Conditions: compared with paclitaxel; cited from earlier work.
Series [1] relates to MDA-MB-231 human breast cancer cells. The series can be described thus: Therapy of MDA-MB231 human breast cancer model implanted in nude mice (tumor growth). The following applies: 4 mg/kg versus 1 mg/kg doxorubicin i.v.; FIG. 5. It is filed as in vivo, Balb/c nude female mice. The protocol:
Tumor-bearing mice were obtained by injecting 2*10̂7 MDA-MB-231 human breast cancer cells s.c. in 10- to 12-week old Balb/c nude female mice (Charles River Laboratories). Mice were grouped (n=5) 9 days after tumor cell implantation when tumors were clearly palpable and injected i.v. in the lateral tail vein with saline, 20 μg F16-IL2 (corresponding to 6.6 μg IL2), 6.6 μg recombinant IL2 (Proleukin®, and 4 mg/kg or 1 mg/kg Doxorubicin in a maximum volume of 250 μl. Mice were monitored daily and tumor growth was measured three times weekly with a caliper using the following formula: volume=length×width2×0.5. Animals were sacrificed when tumors reached a volume >2000 mm3 or when tumors became necrotic according to Swiss regulations and under a project license granted by the
Veterinäramt des Kantons Zürich (198/2005). Tumor sizes are expressed as mean±SE.
Tumor-bearing mice produced in the same way were injected i.v. in the lateral tail vein with saline, 20 μg F16-IL2 (corresponding to 6.6 μg IL2), and 1 mg/kg or 5 mg/kg taxol™ in a maximum volume of 250 μl. Mice were monitored and tumor growth measured as described above.

For series [2] the test system is unchanged. The series can be described thus: Biodistribution of radioiodinated F16-IL2 after doxorubicin pre-injection. The class given is in vivo, Balb/c nude female mice. Conditions: radioiodinated F16-IL2 i.v., sacrifice 24 h after injection; 10 mg/kg doxorubicin i.v. 8 days, 24 h or 2 h before; FIGS. 1 to 4. The protocol:
The in vivo targeting performance was evaluated by biodistribution analysis. Tumor-bearing mice were obtained by injecting 10̂7 MDA-MB-231 human breast cancer cells s.c. in 10- to 12-week old Balb/c nude female mice (Charles River Laboratories). Mice were grouped (n≧5) when tumors were clearly palpable and injected i.v. in the lateral tail vein with 10 mg/kg doxorubicin 8 days, 24 h or 2 h prior to biodistribution. The control group was exempted from doxorubicin administration. Purified F16-IL2 was radioiodinated and injected into the lateral tail vein of all mice. Mice were sacrificed 24 h after injection (12.5 μg, 3.3 μCi per mouse). Organs were weighed and radioactivity was counted with a Packard Cobra gamma counter. Radioactivity content of representative organs was expressed as the percentage of the injected dose per gram of tissue (%ID/g).

A-nor-paclitaxel: in the series on tubulin, the “tubulin-assembly activity relative to paclitaxel” value is given as “only three times less than that of paclitaxel”.

In the case of `COc1cccc2c1C(=O)c1c(O)c3c(c(O)c1C2=O)C[C@@](O)(C(=O)CO)C[C@@H]3OC1CC(N)C(O)C(C)O1` (stereo partly drawn) [doxorubicin, (8S, 10S)-10-(4-amino-5-hydroxy-6-methyl-tetrahydro-2H-pyran-2-yloxy)-6,8,11-trihydroxy-8-(2-hydroxyacetyl)-1-methoxy-7,8,9,10-tetrahydrotetracene-5,12-dione], in series [1], the “effect of doxorubicin dose on efficacy” value is reported as “higher doses of doxorubicin were even more effective than low doses”.

As for “F16-IL2: antibody-IL2 conjugate: interleukin 2 conjugated to the anti-tenascin-C antibody 4A1-F16 (VH SEQ ID NO. 2, VL SEQ ID NO. 4)”, in series [2], the “tumor targeting of the immunocytokine (biodistribution, %ID/g)” value is “does not impair the tumor targeting”.
